Reference: PMC9888433, “Biochemical and hydrogen-deuterium exchange studies of the single nucleotide polymorphism Y649C in human platelet 12-lipoxygenase linked to a bleeding disorder” (Archives of biochemistry and biophysics, 2022)

Legend:
[1] = target: T1, human platelet 12-lipoxygenase (h12-LOX) (Homo sapiens, UniProt P18054); experiment: steady-state Michaelis-Menten kinetics ([…] nm), kcat/KM at […] °C; LC-MS/MS products; assay type: biochemical
T1 construct: gene ALOX12; Nt-6His-tag recombinant enzyme expressed in Sf9
T1 sequence (P18054 1-663): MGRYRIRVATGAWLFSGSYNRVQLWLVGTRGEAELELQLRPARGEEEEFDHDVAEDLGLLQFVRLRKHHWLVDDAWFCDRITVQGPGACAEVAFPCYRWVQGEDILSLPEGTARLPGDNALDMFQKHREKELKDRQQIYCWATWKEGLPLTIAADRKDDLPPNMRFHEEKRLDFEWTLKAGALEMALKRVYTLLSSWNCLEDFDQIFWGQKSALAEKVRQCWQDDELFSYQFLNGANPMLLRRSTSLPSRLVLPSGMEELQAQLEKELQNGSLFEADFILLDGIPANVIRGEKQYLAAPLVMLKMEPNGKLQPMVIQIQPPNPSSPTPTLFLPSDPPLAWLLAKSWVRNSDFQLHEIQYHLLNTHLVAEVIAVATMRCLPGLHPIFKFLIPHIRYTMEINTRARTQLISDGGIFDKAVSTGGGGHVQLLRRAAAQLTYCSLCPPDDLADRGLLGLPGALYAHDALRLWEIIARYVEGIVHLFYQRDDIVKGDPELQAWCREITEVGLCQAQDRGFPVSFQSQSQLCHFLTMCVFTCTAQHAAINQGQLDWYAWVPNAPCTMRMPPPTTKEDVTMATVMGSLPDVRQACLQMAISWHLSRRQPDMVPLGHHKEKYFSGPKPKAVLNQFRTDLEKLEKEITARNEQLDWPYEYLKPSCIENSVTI

[2] = target: T2, human platelet 12-lipoxygenase (h12-LOX) Y649C (Homo sapiens, UniProt P18054, Y649C); experiment: as above; assay type: biochemical
T2 construct: gene ALOX12; Nt-6His-tag recombinant enzyme expressed in Sf9
T2 sequence (P18054 1-663 Y649C): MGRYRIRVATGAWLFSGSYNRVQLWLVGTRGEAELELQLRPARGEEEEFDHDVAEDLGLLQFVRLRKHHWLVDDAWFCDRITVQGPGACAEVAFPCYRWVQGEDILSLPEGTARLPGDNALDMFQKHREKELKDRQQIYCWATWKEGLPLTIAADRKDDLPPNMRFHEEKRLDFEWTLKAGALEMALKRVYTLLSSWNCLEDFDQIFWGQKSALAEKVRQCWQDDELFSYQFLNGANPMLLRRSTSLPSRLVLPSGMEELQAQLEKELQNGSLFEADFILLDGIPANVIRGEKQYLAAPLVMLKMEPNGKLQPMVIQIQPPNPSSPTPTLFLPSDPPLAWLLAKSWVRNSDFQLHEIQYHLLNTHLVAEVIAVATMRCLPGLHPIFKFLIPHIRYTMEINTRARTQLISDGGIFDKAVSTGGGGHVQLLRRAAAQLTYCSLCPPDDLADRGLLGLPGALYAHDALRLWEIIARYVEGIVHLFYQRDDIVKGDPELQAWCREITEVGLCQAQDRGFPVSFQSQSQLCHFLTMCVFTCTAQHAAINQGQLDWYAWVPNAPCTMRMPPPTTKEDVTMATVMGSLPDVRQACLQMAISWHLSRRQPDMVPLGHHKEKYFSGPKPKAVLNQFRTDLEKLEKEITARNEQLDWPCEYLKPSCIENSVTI

[3] = target: T2, human platelet 12-lipoxygenase (h12-LOX) Y649C; experiment: as above; assay type: biochemical; remark: listed apart in the source
[4] = target: T1, human platelet 12-lipoxygenase (h12-LOX); experiment: as above; assay type: biochemical; remark: listed apart in the source
[5] = target: T3, wild-type human platelet 12S-lipoxygenase (human), P18054; experiment: SEC; affinity-purified protein on Superdex 75 10/300 GL, 25 mM HEPES (pH 8), 0.3 mL/min; elution compared with gel filtration standards; conditions: remark: other sources report otherwise
T3 chain: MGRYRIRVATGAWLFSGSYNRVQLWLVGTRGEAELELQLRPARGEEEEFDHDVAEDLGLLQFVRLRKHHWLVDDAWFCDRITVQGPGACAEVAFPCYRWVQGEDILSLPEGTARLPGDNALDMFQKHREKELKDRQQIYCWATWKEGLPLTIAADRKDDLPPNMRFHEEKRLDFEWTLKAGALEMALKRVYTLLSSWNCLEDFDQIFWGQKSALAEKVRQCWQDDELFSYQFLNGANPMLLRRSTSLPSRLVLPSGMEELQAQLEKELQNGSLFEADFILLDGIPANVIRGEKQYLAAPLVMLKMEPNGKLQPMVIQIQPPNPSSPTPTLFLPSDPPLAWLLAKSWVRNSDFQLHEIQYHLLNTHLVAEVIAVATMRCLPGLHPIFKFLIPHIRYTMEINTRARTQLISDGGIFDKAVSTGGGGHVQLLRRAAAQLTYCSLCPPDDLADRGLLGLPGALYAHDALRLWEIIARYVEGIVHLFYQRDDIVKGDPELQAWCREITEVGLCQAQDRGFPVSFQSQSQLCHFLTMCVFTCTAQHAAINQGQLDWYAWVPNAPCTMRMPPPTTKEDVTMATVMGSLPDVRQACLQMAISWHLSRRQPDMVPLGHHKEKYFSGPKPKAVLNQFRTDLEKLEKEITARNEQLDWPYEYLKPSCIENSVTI

[6] = target: the molecule itself; experiment: as above

Q: With CCCCC/C=C\C/C=C\C/C=C\C/C=C\CCCC(=O)O [AA, arachidonic acid] as the molecule, how does the “kcat/KM (μM^-1sec^-1) / WT” value [1] read?
A: The value was 8.7 µM⁻¹ s⁻¹.

Q: And the “kcat/KM (μM^-1sec^-1) / Y649C” value [2]?
A: Its value is 6 µM⁻¹ s⁻¹.

Q: With CC/C=C\C/C=C\C/C=C\C/C=C\C/C=C\C/C=C\CCC(=O)O [DHA, docosahexaenoic acid] as the molecule, how does the “steady-state Michaelis-Menten kinetics (234 nm), kcat/KM at 22 °C; LC-MS/MS prod” value [3] read?
A: The value was 960000 M⁻¹ s⁻¹.

Q: And the “steady-state Michaelis-Menten kinetics (234 nm), kcat/KM at 22 °C; LC-MS/MS prod” value [4]?
A: The value was 7.7e+06 M⁻¹ s⁻¹.

B1: wild-type human platelet 12S-lipoxygenase, P18054 1-663 (enzyme)
chain: MGRYRIRVATGAWLFSGSYNRVQLWLVGTRGEAELELQLRPARGEEEEFDHDVAEDLGLLQFVRLRKHHWLVDDAWFCDRITVQGPGACAEVAFPCYRWVQGEDILSLPEGTARLPGDNALDMFQKHREKELKDRQQIYCWATWKEGLPLTIAADRKDDLPPNMRFHEEKRLDFEWTLKAGALEMALKRVYTLLSSWNCLEDFDQIFWGQKSALAEKVRQCWQDDELFSYQFLNGANPMLLRRSTSLPSRLVLPSGMEELQAQLEKELQNGSLFEADFILLDGIPANVIRGEKQYLAAPLVMLKMEPNGKLQPMVIQIQPPNPSSPTPTLFLPSDPPLAWLLAKSWVRNSDFQLHEIQYHLLNTHLVAEVIAVATMRCLPGLHPIFKFLIPHIRYTMEINTRARTQLISDGGIFDKAVSTGGGGHVQLLRRAAAQLTYCSLCPPDDLADRGLLGLPGALYAHDALRLWEIIARYVEGIVHLFYQRDDIVKGDPELQAWCREITEVGLCQAQDRGFPVSFQSQSQLCHFLTMCVFTCTAQHAAINQGQLDWYAWVPNAPCTMRMPPPTTKEDVTMATVMGSLPDVRQACLQMAISWHLSRRQPDMVPLGHHKEKYFSGPKPKAVLNQFRTDLEKLEKEITARNEQLDWPYEYLKPSCIENSVTI
Q: With B1 as the molecule, how does the stoichiometry N [5] read?
A: The stoichiometry N was 2.

B2: Y649C h12-LOX (enzyme, human, UniProt P18054 1-663, looked up)
chain: MGRYRIRVATGAWLFSGSYNRVQLWLVGTRGEAELELQLRPARGEEEEFDHDVAEDLGLLQFVRLRKHHWLVDDAWFCDRITVQGPGACAEVAFPCYRWVQGEDILSLPEGTARLPGDNALDMFQKHREKELKDRQQIYCWATWKEGLPLTIAADRKDDLPPNMRFHEEKRLDFEWTLKAGALEMALKRVYTLLSSWNCLEDFDQIFWGQKSALAEKVRQCWQDDELFSYQFLNGANPMLLRRSTSLPSRLVLPSGMEELQAQLEKELQNGSLFEADFILLDGIPANVIRGEKQYLAAPLVMLKMEPNGKLQPMVIQIQPPNPSSPTPTLFLPSDPPLAWLLAKSWVRNSDFQLHEIQYHLLNTHLVAEVIAVATMRCLPGLHPIFKFLIPHIRYTMEINTRARTQLISDGGIFDKAVSTGGGGHVQLLRRAAAQLTYCSLCPPDDLADRGLLGLPGALYAHDALRLWEIIARYVEGIVHLFYQRDDIVKGDPELQAWCREITEVGLCQAQDRGFPVSFQSQSQLCHFLTMCVFTCTAQHAAINQGQLDWYAWVPNAPCTMRMPPPTTKEDVTMATVMGSLPDVRQACLQMAISWHLSRRQPDMVPLGHHKEKYFSGPKPKAVLNQFRTDLEKLEKEITARNEQLDWPCEYLKPSCIENSVTI
notes: human platelet 12-lipoxygenase (h12-LOX), UniProt P18054, with the naturally occurring SNP Y649C made by site-directed mutagenesis; numbering as in UniProt P18054; Variant found in a family with a bleeding diathesis; metal content 20% by ICP-MS; also called Y649C SNP variant of h12-LOX
Q: For B2, which “stoichiometry N” value [6] is on record?
A: Its value is 2.
